Data on ten compounds can be found in paper PMC9511049, “Further investigation of blockade effects and binding affinities of selected natural compounds to immune checkpoint PD-1/PD-L1” (Frontiers in Oncology, 2022).

One assay concerns the target T1, human PD-1 protein (Homo sapiens, UniProt Q15116).
T1 construct: Fc; purchased ACRO Biosystems
As to the kind of experiment: PD-1 binding assay with SPR (Biacore T200). As to conditions: for kon: association rate, read-out: PD-1 Ka; for Kd: immobilized human PD-1 (Fc Tag). On the procedure:
The PD-1/PD-L1 binding affinity of test natural compounds was measured on a SPR Biacore T200 instrument (GE Healthcare; Marlborough, MA, USA). Human PD-L1and PD-1 proteins (both with a Fc Tag) were purchased from ACRO Biosystems (Newark, DE, USA). Carboxymethylated CM 5 SPR chips were purchased from GE Healthcare (Marlborough, MA, USA). The SPR binding channels were set as: Cell-1, blank immobilization; Cell-2, human PD-L1 protein was immobilized by the injection of protein solution (40 μg/mL) in sodium acetate buffer (10 mM; pH 4.5); Cell-3, human PD-1 protein was immobilized by the injection of protein solution (40 μg/mL) in sodium acetate buffer (10 mM; pH 5.0). Approximately, 5500 and 4500 RU of human PD-1 and PD-L1 proteins, respectively, were immobilized on the flow cells with an amine coupling method.

Another assay addresses T2, human PD-L1 protein (Homo sapiens, UniProt Q9NZQ7).
T2 construct: Fc; purchased ACRO Biosystems
Nature of the assay: PD-L1 binding assay with SPR (Biacore T200). As to conditions: for Kd: immobilized human PD-L1 (Fc Tag); for kon: association rate, read-out: PD-L1 Ka.

For another assay, the target named is T3, PD-1/PD-L1 interaction (Homo sapiens, UniProt Q9NZQ7).
T3 construct: purchased ACRO Biosystems
Nature of the assay: PD-1/PD-L1 blockade assay (pair ELISA). The class given is biochemical. The settings on record: for blockade effect on the PD-1/PD-L1 interaction (in words): test samples at 10 and 100 μM.

A further assay concerns PD-1/PD-L1. More on the design: method as in PMID 30068796. As to conditions: homogenous AlphaLISA assay; read-out: IC50 of PD-1/PD-L1 blockade; cited from earlier work.

Several values for one entry are separate records, joined by “and”; a condition that tells them apart may be missing. Equal entries are not always repeated.

T1 sequence (Q15116 25-288): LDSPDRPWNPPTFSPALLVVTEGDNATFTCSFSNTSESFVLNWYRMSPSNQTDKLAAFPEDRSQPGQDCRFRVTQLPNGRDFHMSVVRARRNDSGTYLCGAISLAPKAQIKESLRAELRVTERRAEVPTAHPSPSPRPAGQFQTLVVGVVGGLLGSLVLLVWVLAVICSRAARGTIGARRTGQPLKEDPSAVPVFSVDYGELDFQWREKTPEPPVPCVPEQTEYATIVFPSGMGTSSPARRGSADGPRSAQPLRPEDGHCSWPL
T2 sequence (Q9NZQ7 19-290): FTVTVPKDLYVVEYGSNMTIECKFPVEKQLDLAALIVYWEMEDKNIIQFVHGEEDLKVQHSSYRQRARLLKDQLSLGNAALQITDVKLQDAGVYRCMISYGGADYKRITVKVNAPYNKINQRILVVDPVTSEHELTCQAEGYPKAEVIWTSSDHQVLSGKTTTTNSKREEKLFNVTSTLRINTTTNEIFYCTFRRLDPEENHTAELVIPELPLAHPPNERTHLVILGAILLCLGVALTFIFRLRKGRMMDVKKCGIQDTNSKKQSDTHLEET
T3 sequence (Q9NZQ7 19-238 limits assumed): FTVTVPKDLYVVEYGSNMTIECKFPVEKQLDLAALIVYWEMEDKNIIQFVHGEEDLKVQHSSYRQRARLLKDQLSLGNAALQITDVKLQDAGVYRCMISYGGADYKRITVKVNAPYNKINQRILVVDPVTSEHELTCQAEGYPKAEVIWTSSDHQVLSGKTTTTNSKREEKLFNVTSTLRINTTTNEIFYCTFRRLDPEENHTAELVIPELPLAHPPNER

`O=c1oc2c(O)c(O)cc3c(=O)oc4c(O)c(O)cc1c4c23` [EA, ellagic acid]: at human PD-1 protein, the kon came to 410 M⁻¹ s⁻¹ and the Kd came out at 1.82 µM. Further, binding at human PD-L1 protein was put at a Kd of 26.2 µM. For the same compound, on PD-1/PD-L1 interaction, the “blockade effect on the PD-1/PD-L1 interaction (in words)” value is reported as “not detected”.

With `Cc1c(COc2cc(OCc3cccc(C#N)c3)c(CN3C[C@H](O)C[C@@H]3C(=O)O)cc2Cl)cccc1-c1ccc2c(c1)OCCO2` [BMS1166, reference compound], the “blockade of the PD-1/PD-L1 interaction” value at PD-1/PD-L1 interaction (compound at 10 μM) is given as 99.3%.

Regarding `O=c1cc(-c2ccc(O)cc2)oc2cc(O[C@@H]3O[C@H](CO)[C@@H](O)[C@H](O)[C@H]3O)cc(O)c12` [cosmosiin], on human PD-L1 protein, the “selectivity of binding (PD-L1 versus PD-1)” value was “selective binding to the PD-L1 protein”, the kon was 785 M⁻¹ s⁻¹, the “koff (dissociation rate constant) to PD-L1” value is 0.00261 s⁻¹ and binding was characterised by a dissociation constant (Kd) of 3.32 µM. Moreover, the “blockade of the PD-1/PD-L1 interaction” value on PD-1/PD-L1 interaction (compound at 100 μM) stood at 55.8%.

With `O=C1O[C@H]2[C@@H]3OC(=O)c4cc(O)c(O)c(O)c4-c4c(O)c(O)c5oc(=O)c6c(c(O)c(O)c7oc(=O)c4c5c76)-c4c(cc(O)c(O)c4O)C(=O)OC[C@H]3OC(O)[C@@H]2OC(=O)c2cc(O)c(O)c(O)c2-c2c1cc(O)c(O)c2O` (mixture of isomers) [punicalagin], the “binding capacity to PD-1/PD-L1 proteins (in words)” value on human PD-L1 protein (protein not specified further (PD-1/PD-L1 proteins), earlier observation of the authors) is listed as “detectable binding capacity”. Besides, the “activity in the PD-1/PD-L1 blockade assay (in words)” value at PD-1/PD-L1 interaction (earlier observation of the authors, concentration not given) is reported as “not active”.

Regarding `O=C(OC[C@H]1O[C@@H](OC(=O)c2cc(O)c(O)c(O)c2)[C@H](OC(=O)c2cc(O)c(O)c(O)c2)[C@@H](OC(=O)c2cc(O)c(O)c(O)c2)[C@@H]1OC(=O)c1cc(O)c(O)c(O)c1)c1cc(O)c(O)c(O)c1` [PGG, pentagalloyl glucose], on human PD-1 protein, the kon was 3940 M⁻¹ s⁻¹ and binding was put at a Kd of 27.2 µM. For the same compound, on human PD-L1 protein, the kon was 413 M⁻¹ s⁻¹ and the Kd was 2.23 µM. For the same compound, the “blockade effect on the PD-1/PD-L1 interaction (in words)” value on PD-1/PD-L1 interaction is “not detected”.

Consider `O=C(OC[C@H]1O[C@@H](OC(=O)c2cc(O)c(O)c(OC(=O)c3cc(O)c(O)c(O)c3)c2)[C@H](OC(=O)c2cc(O)c(O)c(OC(=O)c3cc(O)c(O)c(O)c3)c2)[C@@H](OC(=O)c2cc(O)c(O)c(OC(=O)c3cc(O)c(O)c(O)c3)c2)[C@@H]1OC(=O)c1cc(O)c(O)c(OC(=O)c2cc(O)c(O)c(O)c2)c1)c1cc(O)c(O)c(OC(=O)c2cc(O)c(O)c(O)c2)c1` [TA, tannic acid], for which the dissociation constant Kd on human PD-1 protein came to 1.46 µM; at human PD-L1 protein it was 1.21 µM. For the same compound, the “blockade of the PD-1/PD-L1 interaction” value on PD-1/PD-L1 interaction (compound at 10 μM) worked out at 11.0%; at PD-1/PD-L1 interaction (compound at 100 μM), 36.9%.

In the case of `CO[C@H]1/C=C/O[C@@]2(C)Oc3c(C)c(O)c4c(c3C2=O)C2=NC3(CCN(CC(C)C)CC3)NC2=C(NC(=O)/C(C)=C\C=C\[C@H](C)[C@H](O)[C@@H](C)[C@@H](O)[C@@H](C)[C@H](OC(C)=O)[C@@H]1C)C4=O` [Rifabutin, rifabutin, reference compound], at human PD-1 protein, the “binding affinity to PD-1 protein (in words)” value is “not detectable”. The “binding affinity to PD-L1 protein (in words)” value on human PD-L1 protein is “not detectable”. Besides, at PD-1/PD-L1 interaction (compound at 100 μM), the “blockade of the PD-1/PD-L1 interaction” value worked out at 58.6%. Also, the IC50 with PD-1/PD-L1 is 25 µM.

Regarding `O=c1c(O)c(-c2ccc(O)cc2)oc2cc(O)cc(O)c12` [kaempferol], the “binding affinity to PD-1 protein relative to PD-L1 protein” value on human PD-1 protein (PD-1 stronger than PD-L1) is recorded as 100 fold. The kon at human PD-1 protein worked out at 504 M⁻¹ s⁻¹; at human PD-L1 protein, 5460 M⁻¹ s⁻¹. In addition, the Kd at human PD-1 protein was 0.304 µM and 0.303 µM; at human PD-L1 protein it was 33 µM and 32.9 µM. Also, the results for the “blockade of the PD-1/PD-L1 interaction” value at PD-1/PD-L1 interaction (compound at 10 μM) and on PD-1/PD-L1 interaction (compound at 100 μM) were 4.1% and 63.4%, respectively.

Take `O=c1oc2cc(O)ccc2c2ccc(O)cc12` [urolithin A]: on human PD-1 protein, the “binding affinity to PD-1 protein (in words)” value is reported as “not detectable”. Further, the “binding affinity to PD-L1 protein (in words)” value at human PD-L1 protein was “not detectable”. The “blockade of the PD-1/PD-L1 interaction” value on PD-1/PD-L1 interaction (compound at 100 μM) is 39.7%.

Take `Oc1ccc(/C=C/c2cc(O)cc(O)c2)cc1` [resveratrol]: at human PD-L1 protein, the “koff (dissociation rate constant) to PD-L1” value is 0.06435 s⁻¹ and the affinity, expressed as Kd, was 37.9 µM.
